Data reported in patent publication US8940310B2, “Methods of treatment using TLR7 and/or TLR9 inhibitors” (Dynavax Technologies Corporation, priority 2010, dated 2015).
Marks after values point to notes of the source that are not given here.

Columns and labels:
PDC = conditions: 129 mice, conventional and plasmacytoid DC, spleen and blood
[1] = Solubility of spacer measured as dialcohol precursor; type: physicochemical; conditions: dodecyl spacer measured as dialcohol precursor
[2] = Monomer and tetramer formation of IRPs, size-exclusion HPLC; type: physicochemical; conditions: 100 mg/mL in PBS and 0.5M KCl, room temperature, five weeks
Experimental: Solutions were prepared of the by mixing 100 mg/mL of the IRP sequences in PBS and 0.5M KCl and storing at room temperature for three to five weeks. The solutions were subsequently analyzed by size-exclusion HPLC.

[3] = High dosages of IRPs in rats (weight, deaths, histology); type: in vivo, Sprague Dawley rats; conditions: for Heart: Cell Vacuolation, number of animals / Heart: Hemorrhage, number of animals / Heart: Mononuclear Cell Infiltration, number of animals / Heart: Necrosis, number of animals / Heart: No significant changes, number of animals / Liver: Liver changes, number of animals / Liver: Mixed cell infiltration, number of animals / Liver: Necrosis, number of animals / Liver: No significant changes, number of animals / Liver: Vacuolation, number of animals / Right Kidney: Hydronephrosis, number of animals / Right Kidney: Mineralization, number of animals / Right Kidney: Necrosis, number of animals / Right Kidney: No significant changes, number of animals / Right Kidney: Tubular basophilia, number of animals / Right Kidney: Tubular changes, number of animals: 6 animals
Experimental: To test the activity of IRPs at high dosages in rats, IRPs (SEQ ID NO:42 and SEQ ID NO:109) or a control (PBS) were subcutaneously administered to 8-9 weeks old, […], 3, 6, and 9 (n=6 per group). Rats were weighed prior to administration and on days 1, 3, 4, 6, 7, and 9. Organs were harvested at the end of the study, and organ weights and tissues levels of the oligonucleotides were determined. In addition, histolocial evaluation of the liver, kidney, and heart was performed.
Rats were weighed prior to administration and on days 1, 3, 6, 7, and 9. Organs were harvested at the end of the study, and organ weights and tissues levels of the oligonucleotides were determined. In addition, histological evaluation of the liver, kidney, and heart was performed.

[4] = High dosages of IRPs in mice (weight, histology); type: in vivo, BALB/c mice; conditions: for Liver: Liver changes, number of animals / Liver: Mixed cell infiltration, number of animals / Liver: No significan changes, number of animals / Right Kidney: No significant changes, number of animals / Right Kidney: Tubular basophilia, number of animals / Right Kidney: Tubular changes, number of animals: 6 animals; for Heart: No significant changes, number of animals: tissue missing in two animals
Experimental: To test the activity of IRPs at high dosages in mice, IRPs or a control (saline) were subcutaneously administered to BALB/c mice at a dosage of 4 mg/kg, 20 mg/kg, 50 mg/kg, or 100 mg/kg on days 1, 4, 7, and 10 (n=5 per group). Mice were weighed prior to administration and on days 2, 4, 7, 9, and 11. Serum cytokines were assayed at two hours post the first and third injections and 24 hours post the fourth injection. Organs were harvested at the end of the study, and organ weights and tissues levels of the oligonucleotides were determined. In addition, histological evaluation of the liver, kidney, and heart was performed.
Mice were weighed prior to administration and on days 1, 3, 4, 6, 7, and 9. Organs were harvested at the end of the study, and organ weights and tissues levels of the oligonucleotides were determined. In addition, histological evaluation of the liver, kidney, and heart was performed.

human B-cells = experiment: Human B-cells cultured in the presence of IRPs, IL-6; conditions: for Normalized IL-6 Response (Percentage of Positive Control): Experiment # 3, Max Conc 4.0 uM; for B-cell stimulatory activity: FIG. 1C, percent IL-6 from CpG-ISS
[5] = 100 mg/kg, 0 = no change to 4 = severe
[6] = rat, 10 mg/kg, 0 = no change to 4 = severe
[7] = rat, 90 mg/kg, 0 = no change to 4 = severe
[8] = 50 mg/kg, 0 = no change to 4 = severe

5′-TCGTCGAACGTTCGAGATGAT-3′ [SEQ ID NO:158, reference compound]
protection from GC-induced cell death (PDC): afforded significant protection from GC-induced cell death

OCCCCCCCCCCCCO [1,12-dihydroxydodecane]
solubility [1]: < 5000 µg/mL

5′-TGC TGC TCC TGG AGI GGT TG-HEG-T-3′ (DNA TGCTGCTCCTGGAGNGGTTGNT; inosine, internal HEG spacer, chemistry not fully specified) [SEQ ID NO:144]
fraction in monomer form [2]: 100% | Liver: hepatocellular cytoplasmic vacuolation ([3]; rat, 10 mg/kg): hepatocellular cytoplasmic vacuolation | Heart: cellular vacuolation ([3]; rat, 90 mg/kg): present in some animals | Kidney: tubular basophilia ([3]; rat, 90 mg/kg): occurred | Liver: hepatocellular cytoplasmic vacuolation ([3]; rat, 90 mg/kg): hepatocellular cytoplasmic vacuolation | Liver: hepatocellular necrosis ([3]; rat, 90 mg/kg): hepatocellular necrosis | Heart: Chronic inflammation, number of animals ([4]; 100 mg/kg): 1 | Heart: Mineralization, number of animals ([4]; 100 mg/kg): 2 | Heart: Chronic inflammation, mean severity score [4, 5]: 3.0 | Heart: Mineralization, mean severity score [4, 5]: 2.5 | Liver: Liver changes, mean severity score [4, 5]: 2.0 | Liver: Mixed cell infiltration, mean severity score [4, 5]: 2.0 | Right Kidney: Tubular changes, mean severity score [4, 5]: 2.0 | Liver: Liver changes, number of animals ([4]; 100 mg/kg): 6 | Liver: Mixed cell infiltration, number of animals ([4]; 100 mg/kg): 6 | Liver: No significan changes, number of animals ([4]; 100 mg/kg): 0 | Right Kidney: No significant changes, number of animals ([4]; 100 mg/kg): 0 | Right Kidney: Tubular basophilia, number of animals ([4]; 100 mg/kg): 0 | Right Kidney: Tubular changes, number of animals ([4]; 100 mg/kg): 6 | Heart: No significant changes, number of animals ([4]; 100 mg/kg): 1** | Normalized IL-6 Response (Percentage of Positive Control) (human B-cells): 10% | B-cell stimulatory activity (human B-cells): low B-cell stimulatory activity

5′-TGC TCC TGG AGI GGT TG-HEG-T-3′ (DNA TGCTCCTGGAGNGGTTGNT; inosine, internal HEG spacer, chemistry not fully specified) [SEQ ID NO:143]
fraction in monomer form [2]: 100% | toxicity profile ([3]; rat histology): favorable toxicity profiles | Heart: Cell Vacuolation, number of animals ([3]; rat, 10 mg/kg): 0 | Heart: Hemorrhage, number of animals ([3]; rat, 10 mg/kg): 0 | Heart: Mononuclear Cell Infiltration, number of animals ([3]; rat, 10 mg/kg): 0 | Heart: Necrosis, number of animals ([3]; rat, 10 mg/kg): 0 | Heart: No significant changes, number of animals ([3]; rat, 10 mg/kg): 6 | Liver: Liver changes, number of animals ([3]; rat, 10 mg/kg): 0 | Liver: Mixed cell infiltration, number of animals ([3]; rat, 10 mg/kg): 5 | Liver: Necrosis, number of animals ([3]; rat, 10 mg/kg): 0 | Liver: No significant changes, number of animals ([3]; rat, 10 mg/kg): 1 | Liver: Vacuolation, number of animals ([3]; rat, 10 mg/kg): 2 | Right Kidney: Hydronephrosis, number of animals ([3]; rat, 10 mg/kg): 0 | Right Kidney: Mineralization, number of animals ([3]; rat, 10 mg/kg): 1 | Right Kidney: Necrosis, number of animals ([3]; rat, 10 mg/kg): 0 | Right Kidney: No significant changes, number of animals ([3]; rat, 10 mg/kg): 0 | Right Kidney: Tubular basophilia, number of animals ([3]; rat, 10 mg/kg): 0 | Right Kidney: Tubular changes, number of animals ([3]; rat, 10 mg/kg): 6 | Liver: Mixed cell infiltration, mean severity score [3, 6]: 1.4 | Liver: Vacuolation, mean severity score [3, 6]: 1.5 | Right Kidney: Mineralization, mean severity score [3, 6]: 2.0 | Right Kidney: Tubular changes, mean severity score [3, 6]: 1.1 | Heart: cellular vacuolation ([3]; rat, 90 mg/kg): present in some animals | Kidney: tubular basophilia ([3]; rat, 90 mg/kg): occurred | Liver: hepatocellular cytoplasmic vacuolation ([3]; rat, 90 mg/kg): hepatocellular cytoplasmic vacuolation | Heart: Cell Vacuolation, number of animals ([3]; rat, 90 mg/kg): 5 | Heart: Hemorrhage, number of animals ([3]; rat, 90 mg/kg): 0 | Heart: Mononuclear Cell Infiltration, number of animals ([3]; rat, 90 mg/kg): 0 | Heart: Necrosis, number of animals ([3]; rat, 90 mg/kg): 0 | Heart: No significant changes, number of animals ([3]; rat, 90 mg/kg): 1 | Liver: Liver changes, number of animals ([3]; rat, 90 mg/kg): 6 | Liver: Mixed cell infiltration, number of animals ([3]; rat, 90 mg/kg): 1 | Liver: Necrosis, number of animals ([3]; rat, 90 mg/kg): 0 | Liver: No significant changes, number of animals ([3]; rat, 90 mg/kg): 0 | Liver: Vacuolation, number of animals ([3]; rat, 90 mg/kg): 5 | Right Kidney: Hydronephrosis, number of animals ([3]; rat, 90 mg/kg): 0 | Right Kidney: Mineralization, number of animals ([3]; rat, 90 mg/kg): 2 | Right Kidney: Necrosis, number of animals ([3]; rat, 90 mg/kg): 0 | Right Kidney: No significant changes, number of animals ([3]; rat, 90 mg/kg): 0 | Right Kidney: Tubular basophilia, number of animals ([3]; rat, 90 mg/kg): 3 | Right Kidney: Tubular changes, number of animals ([3]; rat, 90 mg/kg): 6 | Heart: Cell Vacuolation, mean severity score [3, 7]: 1.0 | Liver: Liver changes, mean severity score [3, 7]: 2.1 | Liver: Mixed cell infiltration, mean severity score [3, 7]: 1.0 | Liver: Vacuolation, mean severity score [3, 7]: 2.7 | Right Kidney: Mineralization, mean severity score [3, 7]: 2.0 | Right Kidney: Tubular basophilia, mean severity score [3, 7]: 1.0 | Right Kidney: Tubular changes, mean severity score [3, 7]: 1.8 | Heart: Chronic inflammation, number of animals ([4]; 50 mg/kg): 2 | Heart: Mineralization, number of animals ([4]; 50 mg/kg): 1 | Heart: Chronic inflammation, mean severity score [4, 8]: 2.0 | Heart: Mineralization, mean severity score [4, 8]: 4.0 | Liver: Liver changes, mean severity score [4, 8]: 2.0 | Liver: Mixed cell infiltration, mean severity score [4, 8]: 3.0 | Right Kidney: Tubular basophilia, mean severity score [4, 8]: 2.0 | Liver: Liver changes, number of animals ([4]; 50 mg/kg): 6 | Liver: Mixed cell infiltration, number of animals ([4]; 50 mg/kg): 6 | Liver: No significan changes, number of animals ([4]; 50 mg/kg): 0 | Right Kidney: No significant changes, number of animals ([4]; 50 mg/kg): 5 | Right Kidney: Tubular basophilia, number of animals ([4]; 50 mg/kg): 1 | Right Kidney: Tubular changes, number of animals ([4]; 50 mg/kg): 0 | Heart: No significant changes, number of animals ([4]; 50 mg/kg): 1** | Heart: Chronic inflammation, number of animals ([4]; 100 mg/kg): 0 | Heart: Mineralization, number of animals ([4]; 100 mg/kg): 1 | Heart: Mineralization, mean severity score [4, 5]: 3.0 | Liver: Mixed cell infiltration, mean severity score [4, 5]: 1.0 | Liver: Liver changes, number of animals ([4]; 100 mg/kg): 0 | Liver: Mixed cell infiltration, number of animals ([4]; 100 mg/kg): 1 | Liver: No significan changes, number of animals ([4]; 100 mg/kg): 5 | Right Kidney: No significant changes, number of animals ([4]; 100 mg/kg): 6 | Right Kidney: Tubular basophilia, number of animals ([4]; 100 mg/kg): 0 | Right Kidney: Tubular changes, number of animals ([4]; 100 mg/kg): 0 | Heart: No significant changes, number of animals ([4]; 100 mg/kg): 3** | Normalized IL-6 Response (Percentage of Positive Control) (human B-cells): 5% | B-cell stimulatory activity (human B-cells): low B-cell stimulatory activity
